Test system: endogenous KRAS from PATU8902 (KRAS(G12V)) and H358 (KRAS(G12C))
Experiment: Pull-down assay with biotinylated 12VC1 from cell lysates
Assay type: binding
Settings: PATU8902 and H358 lysates vs growth factor stimulated HEK293T (wild-type RAS)
Protocol: Pull-down assays. H358, PATU8902, and HEK293T cells were cultured in 10 cm plates (Corning, #430167). H358 and PATU8902 cells were treated with and without ARS1620 (SelleckChem, 58707) at a final concentration of 10 μM for 1.5 hours, and HEK293T cells were treated with EGF (PeproTech; AF-100-15) at a final concentration of 50 ng/mL for 4 minutes. Cells were lysed by incubating them on ice for 15 minutes in GTPase lysis buffer (25 mM Tris-Cl pH 7.2, 150 mM NaCl, 5 mM MgCl2, 1% NP-40 and 5% glycerol supplemented with protease tablet (Roche, 5892991001) and phosphatase inhibitors (1 mM sodium orthovanadate, 10 mM NAF, 54 mM β-glycerol phosphate)) immediately before analysis. After centrifugation for 15 minutes at 15,000 g, the supernatants were collected and incubated with SA agarose resins (Thermo Fisher Scientific) for 1 hour at 4° C. to remove non-specific binders to the resins. After the removal of resins via centrifugation, the pre-cleared lysates were then incubated with biotinylated monobodies bound to SA agarose resins for 3 hours at 4° C. while rotating. The agarose resins were then washed twice with the GTPase lysis buffer and boiled in 1×SDS buffer with 37.5 mM β-mercaptoethanol and processed for Western blotting using a pan-RAS antibody (Santa Cruz Biotechnology, C-4).

## VSSVPTKLEVVAATPTSLLISWDAPAVTVFFYVITYGETGHGVGAFQAFKVPGSKSTATISGLKPGVDYTITVYARGYSKQGPYKPSPISINYRT [12VC1]
  capture of endogenous KRAS in pull-down: selectively captured endogenous KRAS

— patent publication US12049483B2, “Selective and noncovalent inhibitors of oncogenic RAS mutants” (New York University, priority 2020, dated 2024)
